Measured values published in ChEMBL document CHEMBL3351714 (Bioorg Med Chem, 2014).

What was measured:
[1] = target: T1, 5-hydroxytryptamine receptor 1A (Homo sapiens, UniProt P08908); assay: Displacement of [3H]8-OH-DPAT from 5HT1A receptor (unknown origin) transfected in HEK293T cells after 50 mins by liquid scintillation counting analysis; assay type: cell-based, HEK-293T
T1 sequence (P08908 whole entry): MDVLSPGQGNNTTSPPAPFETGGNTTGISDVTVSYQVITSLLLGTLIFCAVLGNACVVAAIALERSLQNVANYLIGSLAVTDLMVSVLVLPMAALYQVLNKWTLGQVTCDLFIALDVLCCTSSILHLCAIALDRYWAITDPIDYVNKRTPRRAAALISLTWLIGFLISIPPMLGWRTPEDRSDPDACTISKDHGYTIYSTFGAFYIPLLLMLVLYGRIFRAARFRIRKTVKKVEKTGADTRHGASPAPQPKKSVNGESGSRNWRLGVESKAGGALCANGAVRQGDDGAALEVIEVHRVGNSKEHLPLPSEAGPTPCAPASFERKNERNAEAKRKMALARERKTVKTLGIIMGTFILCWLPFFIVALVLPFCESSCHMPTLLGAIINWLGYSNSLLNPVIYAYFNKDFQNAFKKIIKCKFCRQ

D(2) dopamine receptor [2] = target: T2, D(2) dopamine receptor (Homo sapiens, UniProt P14416); assay: Displacement of [3H]Spiperone from D2 receptor (unknown origin) transfected in HEK293T cells at 10 uM after 50 mins by liquid scintillation counting analysis; assay type: cell-based; details: HEK-293T
[3] = target: T3, 5-hydroxytryptamine receptor 1A (Homo sapiens) (UniProt P08908); assay: Displacement of [3H]8-OH-DPAT from 5HT1A receptor (unknown origin) transfected in HEK293T cells at 10 uM after 50 mins by liquid scintillation counting analysis; assay type: cell-based; details: HEK-293T
T3 sequence (whole entry): T1 sequence (P08908 whole entry)

D(2) dopamine receptor [4] = target: T2, D(2) dopamine receptor; assay: Displacement of [3H]Spiperone from D2 receptor (unknown origin) transfected in HEK293T cells after 50 mins by liquid scintillation counting analysis; assay type: cell-based, HEK-293T
D(1A) dopamine receptor [5] = target: T4, D(1A) dopamine receptor (Homo sapiens, UniProt P21728); assay: Displacement of [3H]SCH23390 from D1 receptor (unknown origin) transfected in HEK293T cells at 10 uM after 50 mins by liquid scintillation counting analysis; assay type: cell-based; details: HEK-293T
D(1A) dopamine receptor [6] = target: T4, D(1A) dopamine receptor; assay: Displacement of [3H]SCH23390 from D1 receptor (unknown origin) transfected in HEK293T cells after 50 mins by liquid scintillation counting analysis; assay type: cell-based, HEK-293T
[7] = target: 5-hydroxytryptamine receptor 2A (Homo sapiens) (UniProt P28223); assay: Displacement of [3H]Ketanserin from 5HT2A receptor (unknown origin) transfected in HEK293T cells at 10 uM after 15 mins by liquid scintillation counting analysis; assay type: cell-based; details: HEK-293T
D(1A) dopamine receptor [8] = target: T4, D(1A) dopamine receptor; assay: Agonist activity at D1 receptor (unknown origin) after 40 mins by [35S]GTP-gammaS binding assay; assay type: functional
D(3) dopamine receptor = D(3) dopamine receptor (Homo sapiens, UniProt P35462); assay: Displacement of [3H]Spiperone from D3 receptor (unknown origin) transfected in HEK293T cells after 50 mins by liquid scintillation counting analysis; assay type: cell-based, HEK-293T
D(2) dopamine receptor [9] = target: T2, D(2) dopamine receptor; assay: Antagonist activity at D2 receptor (unknown origin) after 40 mins by [35S]GTP-gammaS binding assay in presence of quinpirole; assay type: functional
D(1A) dopamine receptor [10] = target: T4, D(1A) dopamine receptor; assay: Antagonist activity at D1 receptor (unknown origin) after 40 mins by [35S]GTP-gammaS binding assay in presence of SKF38393; assay type: functional
[11] = target: T1, 5-hydroxytryptamine receptor 1A; assay: Agonist activity at 5HT1A receptor (unknown origin) after 20 mins by [35S]GTP-gammaS binding assay; assay type: functional

T4 sequence (P21728 whole entry): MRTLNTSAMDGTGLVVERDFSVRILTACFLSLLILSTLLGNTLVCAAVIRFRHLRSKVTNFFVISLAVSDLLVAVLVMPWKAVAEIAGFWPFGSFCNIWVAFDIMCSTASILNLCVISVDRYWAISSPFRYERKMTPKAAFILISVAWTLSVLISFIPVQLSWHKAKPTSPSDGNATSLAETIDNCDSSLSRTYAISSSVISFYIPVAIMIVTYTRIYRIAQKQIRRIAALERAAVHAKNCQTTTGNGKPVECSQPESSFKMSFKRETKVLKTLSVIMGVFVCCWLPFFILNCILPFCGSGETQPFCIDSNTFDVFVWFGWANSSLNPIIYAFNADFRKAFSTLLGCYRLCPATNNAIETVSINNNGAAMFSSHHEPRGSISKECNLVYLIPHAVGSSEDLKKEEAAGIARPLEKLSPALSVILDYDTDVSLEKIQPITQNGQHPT
Sequence of D(3) dopamine receptor (P35462 whole entry): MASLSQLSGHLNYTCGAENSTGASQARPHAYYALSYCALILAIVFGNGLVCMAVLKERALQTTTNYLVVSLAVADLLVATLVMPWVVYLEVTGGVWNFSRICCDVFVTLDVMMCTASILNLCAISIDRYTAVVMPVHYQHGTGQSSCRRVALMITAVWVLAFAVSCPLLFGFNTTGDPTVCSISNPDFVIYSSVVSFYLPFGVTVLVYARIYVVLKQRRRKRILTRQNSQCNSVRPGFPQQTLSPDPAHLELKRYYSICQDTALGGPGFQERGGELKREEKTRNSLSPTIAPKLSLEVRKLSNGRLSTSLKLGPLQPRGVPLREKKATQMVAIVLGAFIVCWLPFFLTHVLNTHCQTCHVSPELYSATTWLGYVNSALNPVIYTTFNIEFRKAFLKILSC
Sequence of 5-hydroxytryptamine receptor 2A (Homo sapiens) (P28223 whole entry): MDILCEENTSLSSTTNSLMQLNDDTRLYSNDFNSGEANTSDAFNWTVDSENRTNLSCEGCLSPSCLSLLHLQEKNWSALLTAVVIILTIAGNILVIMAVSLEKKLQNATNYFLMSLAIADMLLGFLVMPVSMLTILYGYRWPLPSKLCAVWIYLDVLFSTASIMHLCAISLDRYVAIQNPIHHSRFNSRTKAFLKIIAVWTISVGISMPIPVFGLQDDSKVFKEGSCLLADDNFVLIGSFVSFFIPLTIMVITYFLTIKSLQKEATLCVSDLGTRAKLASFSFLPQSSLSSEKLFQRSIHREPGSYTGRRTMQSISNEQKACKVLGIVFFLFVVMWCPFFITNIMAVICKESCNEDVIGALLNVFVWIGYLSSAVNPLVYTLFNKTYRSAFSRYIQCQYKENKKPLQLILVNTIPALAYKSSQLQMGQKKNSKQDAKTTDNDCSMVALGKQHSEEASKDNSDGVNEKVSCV
T2 sequence (P14416 whole entry): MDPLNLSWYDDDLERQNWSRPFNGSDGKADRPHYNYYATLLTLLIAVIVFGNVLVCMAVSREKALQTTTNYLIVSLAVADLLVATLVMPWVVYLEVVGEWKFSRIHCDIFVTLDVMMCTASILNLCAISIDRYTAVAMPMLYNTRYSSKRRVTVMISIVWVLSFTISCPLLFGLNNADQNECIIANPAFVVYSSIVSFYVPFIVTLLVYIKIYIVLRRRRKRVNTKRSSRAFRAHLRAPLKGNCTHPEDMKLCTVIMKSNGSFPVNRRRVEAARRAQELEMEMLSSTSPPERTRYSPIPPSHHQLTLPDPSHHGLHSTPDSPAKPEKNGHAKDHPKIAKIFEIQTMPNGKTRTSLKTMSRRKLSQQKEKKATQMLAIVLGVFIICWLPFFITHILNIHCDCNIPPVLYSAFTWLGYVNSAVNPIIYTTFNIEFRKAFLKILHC

Row | SMILES | Ki [1] | inhibition (D(2) dopamine receptor [2]) | inhibition [3] | Ki (D(2) dopamine receptor [4]) | inhibition (D(1A) dopamine receptor [5]) | Ki (D(1A) dopamine receptor [6]) | inhibition [7] | EC50 (D(1A) dopamine receptor [8]) | Ki (D(3) dopamine receptor) | IC50 (D(2) dopamine receptor [9]) | IC50 (D(1A) dopamine receptor [10]) | EC50 [11]
1 | COc1cc2c(cc1O)[C@@H]1Cc3sccc3CN1CC2 |  | 95.8% | 89.7% | 88 nM | 98.1% | 87 nM | 82.3% |  |  |  |  | 
2 | COc1cc2c(cc1O)[C@@H]1Cc3sc(CCCC(C)C)cc3CN1CC2 |  | 89% | 36.3% |  | 68.1% |  | 34.9% |  |  |  |  | 
3 | COc1cc2c(cc1O)[C@@H]1Cc3ccc(O)c(OC)c3CN1CC2 [STEPHOLIDINE] |  |  |  | 105 nM |  | 12.3 nM |  | 23 nM | 90 nM | 4380 nM |  | 
4 | CCCc1cc2c(s1)C[C@H]1c3cc(O)c(OC)cc3CCN1C2 |  | 96.3% | 85.3% | 38.6 nM | 98.2% | 61.7 nM | 29.6% |  |  |  |  | 
5 | COc1cc2c(cc1O)[C@@H]1Cc3sc(CC(C)(C)C)cc3CN1CC2 |  | 97% | 79.8% | 190 nM | 93.8% | 634 nM | 19.3% |  |  |  |  | 
6 | COc1cc2c(cc1O)[C@@H]1Cc3sc(CCC(C)C)cc3CN1CC2 |  | 90.5% | 86.9% | 79.5 nM | 88.8% |  | 50.5% |  |  |  |  | 
7 | CCCCCc1cc2c(s1)C[C@H]1c3cc(O)c(OC)cc3CCN1C2 |  | 103% | 81.7% | 46.7 nM | 94.7% | 133 nM | 45.9% |  |  |  |  | 
8 | CCc1cc2c(s1)C[C@H]1c3cc(O)c(OC)cc3CCN1C2 |  | 98.5% | 92.1% | 40.8 nM | 98.2% | 26.3 nM | 45.1% |  |  |  |  | 

The remaining lines, values ahead:

Row | Ki [1] | inhibition (D(2) dopamine receptor [2]) | inhibition [3] | Ki (D(2) dopamine receptor [4]) | inhibition (D(1A) dopamine receptor [5]) | Ki (D(1A) dopamine receptor [6]) | inhibition [7] | EC50 (D(1A) dopamine receptor [8]) | Ki (D(3) dopamine receptor) | IC50 (D(2) dopamine receptor [9]) | IC50 (D(1A) dopamine receptor [10]) | EC50 [11] | SMILES
9 | 285 nM | 105% | 91.6% | 16.5 nM | 91.5% | 45.8 nM | 52.1% |  |  |  |  |  | COc1cc2c(cc1O)[C@@H]1Cc3sc(CC(C)Cl)cc3CN1CC2 (some centres undefined)
10 | 655 nM | 103% | 91.9% | 12 nM | 91.1% | 719 nM | 39.6% |  |  |  |  |  | COc1cc2c(cc1O)[C@@H]1Cc3sc(CCCCCl)cc3CN1CC2
11 |  | 97.2% | 92.2% | 18.4 nM | 94.3% | 77 nM | 62.1% |  |  |  |  |  | COc1cc2c(cc1O)[C@@H]1Cc3sc(CCCCl)cc3CN1CC2
12 |  | 99.5% | 90% | 17.6 nM | 98.6% | 62.2 nM | 53.3% |  | 39.9 nM | 910 nM | 600 nM | 850 nM | CCCCc1cc2c(s1)C[C@H]1c3cc(O)c(OC)cc3CCN1C2
13 |  | 98.4% | 90.8% | 34.4 nM | 96.7% | 16.4 nM | 34.8% |  |  |  |  |  | COc1cc2c(cc1O)[C@@H]1Cc3sc(CCCl)cc3CN1CC2
14 | 778 nM | 98.7% | 93.7% | 34.2 nM | 97.1% | 379 nM | 44.9% |  |  |  |  |  | COc1cc2c(cc1O)[C@@H]1Cc3sc(CC4CCC4)cc3CN1CC2
15 |  |  | 83.7% | 7.54 nM | 97.6% | 128 nM | 50.3% |  | 19.9 nM | 160 nM | 2010 nM | 590 nM | COc1cc2c(cc1O)[C@@H]1Cc3sc(CC(C)C)cc3CN1CC2
16 | 175 nM | 99% | 96.1% | 11.5 nM | 96.8% | 66.2 nM | 39.3% |  |  |  |  |  | COc1cc2c(cc1O)[C@@H]1Cc3sc(CC4CC4)cc3CN1CC2
17 |  | 102% | 69.4% | 29.1 nM | 92% | 403 nM | 33.4% |  |  |  |  |  | CCC(C)Cc1cc2c(s1)C[C@H]1c3cc(O)c(OC)cc3CCN1C2 (some centres undefined)
